Test results: a melting point compilation (Tetko et al.; mined from patent text by program, amines drawn as free bases though some values may be those of a salt)

Structure (SMILES) | melting point [°C]
CC(C)Oc1cc(CO)n(Cc2ccc(Cl)cc2Cl)n1 | 89 to 90
O=C(O)Cc1cn(S(=O)(=O)c2c(Cl)nc3sccn23)c2ccccc12 | 220 to 222
CCCN(Cc1ccc(-c2ccccc2-c2nc(=O)o[nH]2)cc1)c1nc(C)ncc1C(=O)O | 182 to 186
C=CCc1c(O)c2cccnc2n(-c2ccccc2)c1=O | 248 to 250
CC(C)(C)[Si](C)(C)Oc1ccc2[nH]nc(N3C(=O)c4ccccc4C3=O)c2c1 | 225 to 228
CCCC(C)Oc1cc(-n2c(=O)cc(C(F)(F)F)n(C)c2=O)c(F)cc1Cl (stereo not given) | 94 to 97
C#CCOc1c(CO)ccc2ccccc12 | 65 to 68
O=C(NCN1CCCCCCCC1=O)NCN1CCCC1=O | 149 to 150
CC(C)(C(=O)O)c1ccc(CCN2CCC(c3nc4ccccc4n3CCO)CC2)cc1 | 218
CCCCCCC(=N)NC(=S)Nc1ccc(OC(F)(F)F)cc1 | 90 to 91
CSC(=S)N1CCN(Cc2cc(OC(C)=O)ccc2O)CC1 | 124
Cc1cnc2c(NC(=O)c3c(Cl)cccc3Cl)cccc2c1-n1ccc(=O)cc1 | 280 to 282
NCC(O)c1cc(Cl)cc(Cl)n1 (stereo not given) | 117 to 118
Cc1nc(N)nc(N)c1OCCCOc1ccccc1C(F)(F)F | 132 to 134
CN1Cc2c(-c3nc(CN)no3)ncn2-c2ccccc2C1=O | 183 to 185
O=C(Nc1cccc(C(F)(F)F)c1)Nc1c(C(=O)O)[nH]c(=O)[nH]c1=O | > 300
Cc1ccc2ccccc2c1N(C(=O)CO)C1CCOC1=O (stereo not given) | 191 to 195
CCC(C)(C)C(=O)OCc1cccc(C)c1OCCOc1ccc([C@H](N)C(=O)O)cc1 | 170 to 172
CCCn1cncc1CSc1nc2ccc([N+](=O)[O-])cc2[nH]1 | 189 to 190
Cc1cc2c(C#N)ccc(C#N)c2cc1C | 225 to 227

Structure (SMILES) | melting point [°C]
CN(c1ccc(OC2CCCC2)cc1)S(C)(=O)=O | 120 to 122
CCOC(=O)CCNC(=O)CNC(=O)c1csc(NC(=O)NCc2ccccc2)n1 | 187
O=c1[nH][nH]c(=O)n1Cc1ccccc1 | 185 to 188
O=C(O)CCc1cn(Cc2ccc(OCc3csc(-c4ccccc4)n3)nc2)nc1-c1ccccc1 | 107 to 108
CN1CCC(O)(c2ccc(F)cc2F)C1 (stereo not given) | 117 to 119
CC(=O)OC1CCC2(C)C(CCC3C2CCC2(C)C(C(C)CCCI)CCC32)C1 (stereo not given) | 140 to 146
O=C1N(Cc2ccc(Cl)s2)c2c(C(F)(F)F)cccc2C12COc1cc3c(cc12)OCO3 (stereo not given) | 165 to 166
COc1cccc(OC)c1C(=O)NC(=O)Nc1ccc(Sc2ccc(Cl)cc2)nc1 | 172 to 174
Cc1ccc2c(c1)C1CNCCC1N2 (stereo not given) | 73 to 75
CCN1CCN2C(=O)c3ccccc3C12c1ccc(Cl)cc1 (stereo not given) | 114
O=C(O)[C@H](Cc1c[nH]c2ccccc12)NS(=O)(=O)c1ccc2c(c1)Sc1ccccc1O2 | 120 to 130
CC(=O)NC(Oc1ccccc1)C(=O)NCc1ccccc1 (stereo not given) | 125 to 128
CCOC(=O)c1c(C)nc2c(c1N)c1c(n2Cc2ccccc2)CCCC1 | 146 to 147
CC(=O)Oc1cc2ccccc2cc1C(N)=O | 201 to 202
CCCCCOc1ccc(CCOc2ccc(/C=C(\OCC)C(=O)O)cc2OC)cc1 | 135
COC1=C(CCO)C(=O)C(OC)=C(CCCCCC2=C(OC)C(=O)C(CCO)=C(OC)C2=O)C1=O | 97 to 99
CC(C)(C)C(=O)CC(=O)NC1CCCCC1 | 69 to 70
CCOC(=O)CCCn1c(C(=O)C2CCN(CCC3(c4ccc(Cl)c(Cl)c4)CCN(C(=O)c4cc(OC)c(OC)c(OC)c4)C3)CC2)nc2ccccc21 (stereo not given) | 58 to 65
COC(Cc1ccc(OCCc2nc(-c3ccccc3)oc2C)c2ccsc12)C(=O)O (stereo not given) | 129 to 131
COCC1CCCN1S(=O)(=O)c1ccc2c(c1)C1(OCCCO1)C(=O)N2CCC#N (stereo not given) | 138 to 141

Structure (SMILES) | melting point [°C]
Cn1cc(-c2cc(-c3cnc4[nH]cc(C(F)(F)F)c4c3)ccn2)n(-c2ccc(C(C)(C)C#N)cc2)c1=O | 159
Cc1c(C(=O)Nc2ccc(N3CCC(N4CCOCC4)CC3)c(C#N)c2)cnn1-c1ccccc1Cl | 218
CC1=NC(NC(=O)Nc2cccc(C#N)c2)C(=O)N(CC(=O)C(C)(C)C)c2ccccc21 (stereo not given) | 246 to 247
CN(Cc1ccc(C(=O)O)cc1)c1ccc2c(c1)C(C)(C)CCC2(C)C | 141 to 144
CC(C)(C)[Si](C)(C)OCCN(CCON1C(=O)c2ccccc2C1=O)CCON1C(=O)c2ccccc2C1=O | 56 to 58
O=C(O)c1cc2sc3sccc3c2s1 | 276
CCOC(=O)c1cn(Cc2ccc(Oc3ccccc3)cc2)nc1OCc1ccc(OCc2nc(-c3ccco3)oc2C)c(OC)c1 | 98 to 99
Nc1nc(Nc2cccc(C(F)(F)F)c2)nc(OCC(F)(F)F)n1 | 133 to 135
CSc1ncc2c(=O)[nH]c(-c3ccccc3OCC3CC3)nc2n1 | 186 to 187
C[C@@H](c1ccc(-c2c[nH]nn2)cc1)[C@](O)(Cn1cncn1)c1ccc(F)cc1F | 121
CCCCCCCCNc1nc(C=O)cs1 | 60 to 62
CC(C)(C)OC(=O)c1ccc(N)cc1F | 100 to 101
CC(C)n1nc(-c2sc(C(=O)NCc3ccncc3)nc2-c2ccccc2)ccc1=O | 192 to 193
COCCn1c(Oc2ccc(-n3c4ncccc4n4ccnc34)cc2)nc2cccnc21 | 178 to 182
CCOc1n[nH]c(=O)n1C1CC1 | 144 to 145
O=NCNC1=Nc2ccc(Cl)cc2C(c2ccccc2F)=NC1 | 170 to 172
C#CC(Cn1ncnn1)n1nnc2cc3c(=O)n(C4CC4)nnc3cc2c1=O (stereo not given) | 224 to 225
COc1cc2ncnc(N3CCN(C(=O)NCc4ccc(CO)cc4)CC3)c2cc1OC | 228 to 229
O=C(Nc1nc(C(Cl)(Cl)Cl)ns1)C(Cl)(Cl)Cl | 158
COc1ccc(NC(=O)c2ccc(-c3ccc(-c4nc(N)no4)cc3C)cc2)cc1N1CCN(C)CC1 | 169 to 171

Results, then the compound that gave them:

melting point [°C] | Structure (SMILES)
208 to 210 | COc1ccc(NC(=O)c2ccccc2NC(=O)c2ccc(C(C)(C)C)cc2)cc1
116 to 117 | Cc1cc(NC(=O)c2ccc(C(=O)N3CCN(c4ncccc4NC(C)C)CC3)nc2)n[nH]1
82 to 86 | CCCCOc1cc(CCS(=O)(=O)NC(=O)OCCOC)n(Cc2ccc(Cl)cc2Cl)n1
48 | CC1(C)CCSc2cccc(O)c21
167 to 168 | COc1cc(CNC(=O)c2ccc3n2Cc2ccccc2N(C(=O)COc2ccc(Cl)cc2C)C3)ccc1O
196 | CC(=O)NC(=O)Nc1ccc(OS(=O)(=O)c2cccc(C(F)(F)F)c2)cc1[N+](=O)[O-]
203 to 206 | O=C(O)Cn1cc(Cc2nc3c(F)c(F)cc(F)c3s2)c2c(Cl)cccc21
193 to 194 | c1ccc2cc3sccc3cc2c1
223 to 230 | CCNC(=O)c1ccc(N2CCN(Cc3cc(C)c4c(c3)NC(=O)C(C)O4)CC2)c(C)c1 (stereo not given)
235 to 240 | CCOC(=O)c1cn(C)c2nn(C)cc2c1=O
72 | COc1cc(C)c(C(=O)c2c(OC)ccc3ccccc23)c(OC)c1OC
121 to 125 | NC(Cc1cccc2c(Cl)cccc12)=NO
118 to 119 | Cc1cc(CCCCCCCOc2ccc(C3=NCCN3)cc2)on1
93 to 95 | CCNC(=O)c1ccncc1
218 to 220 | COc1cccc2c(Nc3ccccc3C)nc(N)nc12
93 | CCCCCCC(=O)c1ccc(O)cc1
190 to 191 | COC(=O)c1nc2nn(-c3ccccc3)c(C)c2c(N)c1C(=O)OC
122 to 124 | C[C@@H]1Cc2ccsc2[C@H](C)N1CCNC(=O)c1ccc(C#N)cc1 (relative stereo)
66 to 68 | CN1C(=O)C(c2ccc(OCCCCCBr)cc2)Sc2cc(Cl)ccc21 (stereo not given)
256 to 258 | c1ccc(CN2CCN(c3n[nH]c4c3Cc3ccccc3-4)CC2)cc1

melting point [°C] | Structure (SMILES)
> 360 | Cn1c2ccc(Cl)cc2c(=O)n2nc(C(N)=O)cc12
273 to 274 | COc1c2nc(CCl)n(C)c(=O)c2c(OC)c2nc(CCl)n(C)c(=O)c12
53 to 55 | OCCCOc1ccc(Cl)cc1Cl
190 to 192 | CCC1(C(=O)OC)C(=O)Nc2cccc(Cl)c2CC1c1ccc(OC)cc1 (stereo not given)
294 | NS(=O)(=O)c1ccc(-c2noc(-c3cnn4c(C(F)(F)F)cc(-c5ccc(Cl)cc5)nc34)n2)s1
220 to 221 | C=CCn1c(=O)c2c(nc(/C=C/c3cc(OC)c(OC(C)=O)c(OC)c3)n2C)n(CC=C)c1=O
108 to 110 | CC(=O)Oc1cc(C(=O)Cl)cc(OC(C)=O)c1OC(C)=O
189 to 190 | COc1cc2c(cc1OC)CN(CCCOc1ccc(NC(=O)c3ccc4ccccc4c3)cc1)CC2
245 | Nc1cc(C(=O)O)cc(S(N)(=O)=O)c1Nc1ccc2ccccc2c1
128 to 129 | OC(COCc1ncc[nH]1)c1ccc2sccc2c1 (stereo not given)
> 300 | Nc1cc(C(=O)O)ccc1-c1nc(-c2ccc(C(F)(F)F)cc2)no1
65 to 70 | Cc1ccccc1CCCc1c(C(C)C)nc(C(C)C)c(CO)c1-c1ccc(F)cc1
183 | CS(=O)(=O)c1ccc(/C(=C2\CCSC2=O)c2ccc(Cl)cc2)cc1
70 to 72 | COc1cccc(N2CCN(C(=O)NCCN(C)C)CC2)c1
> 280 | Cc1ccc2c(c1)c1cc(-c3ccc(O)cc3)c(=O)n(C)c1n2C
90 to 91 | CN(C)C(=O)N(C)c1cc(C(C)(C)C)on1
106 to 107 | Oc1ccc(Cl)cc1C(O)c1ccc(Cl)cc1 (stereo not given)
64 to 65 | CCCCCCCCCCCCCCCCOCC(O)CN1CCC(c2ccccc2)CC1 (stereo not given)
146 | Cc1nc(Cl)cc(NN)n1
141 to 142 | COc1ccc(-c2nc(NS(=O)(=O)c3ccc(C(C)(C)C)cc3)c(Oc3ccccc3OC)c(OC[C@@H](O)CO)n2)cc1
